Measurements taken from patent US7939554B2, “Protein phosphatase inhibitors” (The Cleveland Clinic Foundation, priority 2006, dated 2011).

What was measured:
PTPase CD45 = target: T1, PTPase CD45 (Homo sapiens, UniProt P08575); test: pLck-pY505 levels in L5-treated Jurkat cells; assay type: cell-based; settings: FIG. 4D
T1 construct: endogenous in cells; host or cells: Jurkat
T1 sequence (P08575 26-1306): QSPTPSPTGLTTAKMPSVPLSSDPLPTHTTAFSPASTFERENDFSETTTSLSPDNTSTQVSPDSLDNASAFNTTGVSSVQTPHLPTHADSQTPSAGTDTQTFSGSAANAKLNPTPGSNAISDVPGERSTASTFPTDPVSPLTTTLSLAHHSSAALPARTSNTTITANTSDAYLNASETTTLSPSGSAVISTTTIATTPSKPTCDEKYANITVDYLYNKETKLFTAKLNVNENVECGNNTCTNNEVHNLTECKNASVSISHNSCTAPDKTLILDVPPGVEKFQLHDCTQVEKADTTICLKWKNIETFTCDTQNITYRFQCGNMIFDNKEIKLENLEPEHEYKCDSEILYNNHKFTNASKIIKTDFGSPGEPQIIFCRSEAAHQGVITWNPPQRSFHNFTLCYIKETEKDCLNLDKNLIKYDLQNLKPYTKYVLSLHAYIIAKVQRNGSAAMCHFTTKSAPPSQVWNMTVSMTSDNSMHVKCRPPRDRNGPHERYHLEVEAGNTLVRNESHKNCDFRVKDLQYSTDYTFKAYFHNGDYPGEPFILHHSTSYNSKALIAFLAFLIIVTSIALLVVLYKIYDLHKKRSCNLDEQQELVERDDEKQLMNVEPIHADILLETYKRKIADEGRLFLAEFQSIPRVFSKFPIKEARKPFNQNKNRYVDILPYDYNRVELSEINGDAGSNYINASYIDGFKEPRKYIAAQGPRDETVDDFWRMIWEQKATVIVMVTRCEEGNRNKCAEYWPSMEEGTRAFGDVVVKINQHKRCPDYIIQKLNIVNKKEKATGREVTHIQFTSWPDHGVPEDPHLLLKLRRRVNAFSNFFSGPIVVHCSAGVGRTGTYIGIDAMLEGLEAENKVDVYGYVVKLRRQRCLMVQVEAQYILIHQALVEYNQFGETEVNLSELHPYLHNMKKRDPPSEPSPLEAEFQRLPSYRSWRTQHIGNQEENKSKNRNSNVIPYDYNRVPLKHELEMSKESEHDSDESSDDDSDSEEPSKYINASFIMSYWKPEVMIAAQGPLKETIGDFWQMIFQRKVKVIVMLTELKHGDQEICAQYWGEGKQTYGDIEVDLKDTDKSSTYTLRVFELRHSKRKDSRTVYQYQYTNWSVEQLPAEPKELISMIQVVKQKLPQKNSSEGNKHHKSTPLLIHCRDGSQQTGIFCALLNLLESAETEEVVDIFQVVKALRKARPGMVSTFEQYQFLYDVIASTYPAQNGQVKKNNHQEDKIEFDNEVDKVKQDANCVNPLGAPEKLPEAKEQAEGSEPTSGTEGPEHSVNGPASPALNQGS
Method: (§1) Jurkat cells in culture medium (3×10^6 cells/ml, 1 ml/tube) were treated with agents for designated times at room temperature. After brief centrifuging in a microfuge (4,000 rpm, 2 min), the cell pellet was lysed on ice for 30 min in […] of cold lysis buffer (1% NP40, 50 mM Tris, pH 7.4, 150 mM NaCl, 20 mM NaF, 0.2 mM Na3VO4 and 1 mM Na3MO4) containing a cocktail of proteinase inhibitors (Sigma, 1 tablet/10 ml). The lysates were cleared by centrifuging (14,000 rpm, 10 min) in a microfuge at 4° C. to remove insoluble parts, mixed with equal volume of 2×SDS-PAGE sample buffer, boiled for 5 min and analyzed (˜3×10^5 cells/well) by SDS-PAGE/Western blotting. Relative intensities of phosphotyrosine bands were quantified through densitometry analysis.
(§2) To assess the effects of L5 on other phosphatases, pERK1/2 and pLck-pY505 in L5-treated Jurkat cells were quantified. SHP-2 is known to be a positive mediator of pERK1/2 whereas pLck-pY505 is dephosphorylated by PTPase CD45.

[1] = test system: spleen pLck and IFNγ+ cells; test: in vivo induction of spleen pLck and IFNγ+ cells in mice; parameters: species or system mouse
Method: Spleens were harvested one hour post-treatment on day 4 and processed into splenocytes, which were used for assessing pLck levels by SDS-PAGE/Western blotting and for quantification of IFNγ+ cells by ELISPOT assays. Mice were also treated with L5 (˜10 mg/kg body weight, daily, s. c., n=2) to evaluate the toxicity of the compounds in vivo.

B16 melanoma cells = test: B16 melanoma cell growth in culture (MTT assay); assay type: cell-based, mouse; settings: doses up to 10 μg/ml, 5 days
Method: Data represent mean±SD of triplicate samples. […] Tumor volumes were recorded as indicated. C, Athymic nude mice bearing 4-day-established B16 tumors were subjected to differential treatments as in B. Tumor volumes were recorded as indicated.
L5, L6 and L6 analogs (Chembridge), mouse IFNγ ELISPOT Kit (R & D System) and antibody against pLck-pY394 or pERK1/2 (Cell Signaling) were purchased from commercial sources. Human Jurkat T cell line and murine B16 melanoma cell line (ATCC) and other cancer cell lines were maintained in […] culture medium supplemented with 10% fetal calf serum (FCS). The effects of chemical compounds on cancer cell growth in culture were quantified by MTT assays following our established procedures.

SHP-2 = target: T2, SHP-2 (Homo sapiens, UniProt Q06124); test: pERK1/2 levels in L5-treated Jurkat cells; assay type: cell-based; parameters: endogenous in cells; host or cells: Jurkat; settings: not at lower doses (0.1 to 0.001 μg/ml)
T2 sequence (Q06124 1-593): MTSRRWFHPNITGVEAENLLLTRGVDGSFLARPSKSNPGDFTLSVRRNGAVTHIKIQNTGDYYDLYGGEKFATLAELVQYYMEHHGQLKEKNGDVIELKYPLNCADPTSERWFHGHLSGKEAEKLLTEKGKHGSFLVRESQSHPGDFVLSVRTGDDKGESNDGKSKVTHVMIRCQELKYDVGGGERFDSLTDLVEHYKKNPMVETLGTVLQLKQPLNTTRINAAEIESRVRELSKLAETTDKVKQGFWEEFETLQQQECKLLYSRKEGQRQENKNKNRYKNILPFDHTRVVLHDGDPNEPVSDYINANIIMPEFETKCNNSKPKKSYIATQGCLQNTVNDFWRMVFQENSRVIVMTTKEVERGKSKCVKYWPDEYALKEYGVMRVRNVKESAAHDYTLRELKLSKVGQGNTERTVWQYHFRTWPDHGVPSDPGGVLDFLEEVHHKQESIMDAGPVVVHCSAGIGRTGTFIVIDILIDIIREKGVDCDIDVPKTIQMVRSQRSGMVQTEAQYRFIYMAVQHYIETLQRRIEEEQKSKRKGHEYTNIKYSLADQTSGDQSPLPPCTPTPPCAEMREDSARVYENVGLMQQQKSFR
Method: as §1, §2

[2] = ~3 mg/kg body weight, s.c., daily, 4 days

`O=C1C=CC(=O)C(c2cc(Cl)ccc2Cl)=C1` [L5] was tested, and the “effect on pLck-pY505” value (PTPase CD45) was “little effects”, the “effect on splenocyte pLck in treated mice” value ([1]; 1 mg/kg of body weight) was “minor effect” and the “spleen IFNγ+ cells increase in treated mice” value [1, 2] was “approximately 3 fold”. The “splenocyte pLck increase in treated mice” value [1, 2] was ~3.3 fold, the “direct toxicity against B16 cells in culture” value (B16 melanoma cells) was “little direct toxicity” and the “dose reducing pERK1/2 levels” value (SHP-2) was 1 μg/ml.
